Test results from US8394967B2, “Antioxidant inflammation modulators: C-17 homologated oleanolic acid derivatives” (Reata Pharmaceuticals, Inc., priority 2008, dated 2013).
Where a name gives a salt, the structure may show the parent alone. Read-outs that look alike come from different tables or passages of the source.

Tests used:
[1] = test system: NO production in RAW264.7 macrophages; test: Inhibition of NO production in IFNγ-treated RAW264.7 macrophages (Griess reagent); assay type: cell-based, mouse; settings: then 20 ng/ml IFNγ for 24 hours
Description: (§1) FIGS. 1-4, 6 and 8. Inhibition of NO Production. RAW264.7 macrophages were pre-treated with DMSO or drugs at various concentrations (nM) for 2 hours, then treated with 20 ng/ml IFNγ for 24 hours. NO concentration in media was determined using a Griess reagent system; cell viability was determined using WST-1 reagent.
(§2) Nitric Oxide production and cell viability. RAW264.7 macrophages were pre-treated with DMSO or drugs for 2 hours, then treated with recombinant mouse IFNγ (Sigma) for 24 hours. NO concentration in media was determined using the Griess reagent system (Promega). Cell viability was determined using WST-1 reagent (Roche).

[2] = test system: RAW264.7 macrophages; test: Cell viability of RAW264.7 macrophages (WST-1 reagent); assay type: cell-based, mouse; settings: read-out: RAW264.7 (20 ng/ml IFNγ) WST-1 IC50
Description: as §1, §2

[3] = Mus musculus, RAW264.7, RAW264.7 macrophages pre-treated 2 hours
[4] = Mus musculus, RAW264.7, 24 h, cell viability, RAW264.7, 20 ng/ml IFNγ 24 hours, WST-1 reagent
[5] = RAW264.7 macrophages pre-treated 2 hours
[6] = cell viability, RAW264.7, 20 ng/ml IFNγ 24 hours, WST-1 reagent

Row | IC50 [1, 3] [nM] | IC50 [1, 5] [nM] | SMILES | IC50 [2, 4] [nM] | IC50 [2, 6] [nM] | IC50 ([2]; Mus musculus, RAW264.7, 24 h) [nM]
1 | ~25 | – | CC1(C)CC[C@]2([C@@H](O)CCl)CC[C@]3(C)[C@H](C(=O)C[C@@H]4[C@@]5(C)C=C(C#N)C(=O)C(C)(C)[C@@H]5CC[C@]43C)[C@@H]2C1 (single isomer, unassigned) [Compound 63282] | > 200 | – | –
2 | – | ~20 | CC1(C)CC[C@]2(C(O)CBr)CC[C@]3(C)[C@H](C(=O)C[C@@H]4[C@@]5(C)C=C(C#N)C(=O)C(C)(C)[C@@H]5CC[C@]43C)[C@@H]2C1 (single isomer, unassigned) [Compound 63283] | – | ~200 | –
3 | – | ~15 | CC1(C)CC[C@]2(C(O)CBr)CC[C@]3(C)[C@H](C(=O)C[C@@H]4[C@@]5(C)C=C(C#N)C(=O)C(C)(C)[C@@H]5CC[C@]43C)[C@@H]2C1 (single isomer, unassigned) [Compound 63284] | – | ~200 | –
4 | – | ~13 | CC1(C)CC[C@]2(C3CO3)CC[C@]3(C)[C@H](C(=O)C[C@@H]4[C@@]5(C)C=C(C#N)C(=O)C(C)(C)[C@@H]5CC[C@]43C)[C@@H]2C1 (single isomer, unassigned) [Compound 63286] | – | > 200 | –
5 | ~40 | – | C=C[C@]12CCC(C)(C)C[C@H]1[C@H]1C(=O)CC3[C@@]4(C)C=C(C#N)C(=O)C(C)(C)C4CC[C@@]3(C)[C@]1(C)CC2 (stereo partly drawn) [Compound 63213, (6aR,6bR,8aR,12aS,12bR,14bR)-4,4,6a,6b,11,11,14b-heptamethyl-3,13-dioxo-8a-vinyl-3,4,4a,5,6,6a,6b,7,8,8a,9,10,11,12,12a,12b,13,14,14a,14b-icosahydropicene-2-carbonitrile] | ~200 | – | –
6 | ~80 | – | CC1(C)CC[C@]2(CSc3ccccc3)CC[C@]3(C)[C@H](C(=O)C[C@@H]4[C@@]5(C)C=C(C#N)C(=O)C(C)(C)[C@@H]5CC[C@]43C)[C@@H]2C1 [Compound 63235, (4aR,6aR,6bR,8aS,12aS,12bR,14aR,14bR)-4,4,6a,6b,11,11,14b-heptamethyl-3,13-dioxo-8a-(phenylthiomethyl)-3,4,4a,5,6,6a,6b,7,8,8a,9,10,11,12,12a,12b,13,14,14a,14b-icosahydropicene-2-carbonitrile] | ~150 | – | –
7 | ~50 | – | CC1(C)CC[C@]2(C[S+]([O-])c3ccccc3)CC[C@]3(C)[C@H](C(=O)C[C@@H]4[C@@]5(C)C=C(C#N)C(=O)C(C)(C)[C@@H]5CC[C@]43C)[C@@H]2C1 (stereo partly drawn) [Compound 63255, (4aR,6aR,6bR,8aS,12aS,12bR,14aR,14bR)-4,4,6a,6b,11,11,14b-heptamethyl-3,13-dioxo-8a-(phenylsulfinylmethyl)-3,4,4a,5,6,6a,6b,7,8,8a,9,10,11,12,12a,12b,13,14,14a,14b-icosahydropicene-2-carbonitrile] | > 200 | – | –
8 | ~30 | – | CC1(C)CC[C@]2(CS(=O)(=O)c3ccccc3)CC[C@]3(C)[C@H](C(=O)C[C@@H]4[C@@]5(C)C=C(C#N)C(=O)C(C)(C)[C@@H]5CC[C@]43C)[C@@H]2C1 [Compound 63266, (4aR,6aR,6bR,8aS,12aS,12bR,14aR,14bR)-4,4,6a,6b,11,11,14b-heptamethyl-3,13-dioxo-8a-(phenylsulfonylmethyl)-3,4,4a,5,6,6a,6b,7,8,8a,9,10,11,12,12a,12b,13,14,14a,14b-icosahydropicene-2-carbonitrile] | > 200 | – | –
9 | ~50 | – | CC1(C)CC[C@]2(CC(=O)O)CC[C@]3(C)[C@H](C(=O)C[C@@H]4[C@@]5(C)C=C(C#N)C(=O)C(C)(C)[C@@H]5CC[C@]43C)[C@@H]2C1 [Compound 63332, 2-((4aR,6aR,6bR,8aR,12aR,12bR,14aR,14bS)-11-cyano-2,2,6a,6b,9,9,12a-heptamethyl-10,14-dioxo-1,2,3,4,4a,5,6,6a,6b,7,8,8a,9,10,12a,12b,13,14,14a,14b-icosahydropicen-4a-yl)acetic acid] | – | – | –

Second part, the compound before the results:

Row | SMILES | IC50 [1, 3] [nM] | IC50 [1, 5] [nM] | IC50 [2, 4] [nM] | IC50 [2, 6] [nM] | IC50 ([2]; Mus musculus, RAW264.7, 24 h) [nM]
10 | CC1(C)CC[C@]2(CN)CC[C@]3(C)[C@H](C(=O)CC4[C@@]5(C)C=C(C#N)C(=O)C(C)(C)C5CC[C@]43C)[C@@H]2C1 (stereo partly drawn) [63214 salt, (6aR,6bR,8aS,12aS,12bR,14bR)-8a-(aminomethyl)-4,4,6a,6b,11,11,14b-heptamethyl-3,13-dioxo-3,4,4a,5,6,6a,6b,7,8,8a,9,10,11,12,12a,12b,13,14,14a,14b-icosahydropicene-2-carbonitrile, trifluoroacetic acid salt] | ~30 | – | > 200 | – | –
11 | COC(=O)C[C@]12CCC(C)(C)C[C@H]1[C@H]1C(=O)C=C3[C@@]4(C)C=C(C#N)C(=O)C(C)(C)[C@@H]4CC[C@@]3(C)[C@]1(C)CC2 [Compound 402-50, methyl-2-((4aR,6aR,6bS,8aR,12aS,14aR,14bS)-11-cyano-2,2,6a,6b,9,9,12a-heptamethyl-10,14-dioxo-1,2,3,4,4a,5,6,6a,6b,7,8,8a,9,10,12a,14,14a,14b-octadecahydropicen-4a-yl)acetate] | ~2.5 | – | 75 | – | –
12 | CC1(C)CC[C@]2(CC(=O)O)CC[C@]3(C)[C@H](C(=O)C=C4[C@@]5(C)C=C(C#N)C(=O)C(C)(C)[C@@H]5CC[C@]43C)[C@@H]2C1 [Compound 402-54, 2-((4aR,6aR,6bS,8aR,12aS,14aR,14bS)-11-cyano-2,2,6a,6b,9,9,12a-heptamethyl-10,14-dioxo-1,2,3,4,4a,5,6,6a,6b,7,8,8a,9,10,12a,14,14a,14b-octadecahydropicen-4a-yl)acetic acid] | ~6 | – | > 200 | – | –
13 | CC1(C)CC[C@]2(CO)CC[C@]3(C)[C@H](C(=O)CC4[C@@]5(C)C=C(C#N)C(=O)C(C)(C)[C@@H]5CC[C@]43C)[C@@H]2C1 (stereo partly drawn) [Compound 402-63, (4aR,6aR,6bR,8aS,12aS,12bR,14bR)-8a-(hydroxymethyl)-4,4,6a,6b,11,11,14b-heptamethyl-3,13-dioxo-3,4,4a,5,6,6a,6b,7,8,8a,9,10,11,12,12a,12b,13,14,14a,14b-icosahydropicene-2-carbonitrile] | ~9 | – | > 200 | – | –
14 | CC(=O)OC[C@]12CCC(C)(C)C(C#N)[C@H]1[C@H]1C(=O)CC3[C@@]4(C)C=CC(=O)C(C)(C)[C@@H]4CC[C@@]3(C)[C@]1(C)CC2 (stereo partly drawn) [Compound 402-65, ((4aS,6aR,6bR,8aR,12aR,14aR,14bS)-1-cyano-2,2,6a,6b,9,9,12a-heptamethyl-10,14-dioxo-1,2,3,4,4a,5,6,6a,6b,7,8,8a,9,10,12a,12b,13,14,14a,14b-icosahydropicen-4a-yl)methyl acetate] | ~12.5 | – | > 200 | – | –
15 | Cn1nnc(CNC[C@]23CCC(C)(C)C[C@H]2[C@H]2C(=O)C[C@@H]4[C@@]5(C)C=C(C#N)C(=O)C(C)(C)[C@@H]5CC[C@@]4(C)[C@]2(C)CC3)n1 [Compound 63233, (4aR,6aR,6bR,8aS,12aS,12bR,14aR,14bR)-4,4,6a,6b,11,11,14b-heptamethyl-8a-(((2-methyl-2H-tetrazol-5-yl)methylamino)methyl)-3,13-dioxo-3,4,4a,5,6,6a,6b,7,8,8a,9,10,11,12,12a,12b,13,14,14a,14b-icosahydropicene-2-carbonitrile] | – | – | – | – | > 200
16 | CCOP(=O)(OCC)OC[C@]12CCC(C)(C)C[C@H]1[C@H]1C(=O)C[C@@H]3[C@@]4(C)C=C(C#N)C(=O)C(C)(C)[C@@H]4CC[C@@]3(C)[C@]1(C)CC2 [Compound 63239, ((4aS,6aR,6bR,8aR,12aR,12bR,14aR,14bS)-11-cyano-2,2,6a,6b,9,9,12a-heptamethyl-10,14-dioxo-1,2,3,4,4a,5,6,6a,6b,7,8,8a,9,10,12a,12b,13,14,14a,14b-icosahydropicen-4a-yl)methyl diethyl phosphate] | – | – | – | – | > 200
